From PubChem BioAssay (NCI)
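Compound exposure: 48 hours, 5 concentrations, 96-well plates. TGI: total growth inhibition.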 *1 amine or outer side, *2 acyl side, *3 side chain or, on linkers, in order; H or OH if unused. Where a SMILES comes first, the peptide text is derived from it. [ ]: non-standard residue; d: D form. The star is where a group is joined. ξ: configuration not given here. X53 = CC(C)C[C@H](N[*:1])C1=N[C@H](C(=O)[*:2])CS1; Ile(3ξ) = CCC(C)[C@H](N)C(=O)O; Allyl(1,1-Me2) = C=CC(C)(C)*

tested on: HT29 colon; assay: NCI tumour cell line growth inhibition, 48 h

Row | Compound | TGI
1 | Clc1ccc(Cc2nc3cc(Cl)c(Cl)cc3n2CC2CCCN3CCCCC23)cc1Cl (stereo not drawn) | 6.85 µM
2 | C=CC(C)(C)OC[C@@H]1NC(=O)CNC(=O)[C@@H]2CCCN2C(=O)[C@H](C(C)CC)NC(=O)[C@@H]2CSC(=N2)[C@H](CC(C)C)NC1=O (stereo partly drawn) (cyclo(GS(Allyl(1,1-Me2))[X53][Ile(3ξ)]P)) | > 100 µM

tested on: NCI/ADR-RES ovarian; assay: NCI tumour cell line growth inhibition, 48 h

Row | Compound | TGI
3 | O=C1c2ccccc2C(=O)N1[C@@H](Cc1ccccc1)C(=O)n1cccc1CO | > 100 µM
4 | C1CSC2=C(S1)SC1=C(S2)SC(=C2SC3=C(SC4=C(SCCS4)S3)S2)S1 | > 100 µM
5 | Clc1ccc(Cc2nc3cc(Cl)c(Cl)cc3n2CC2CCCN3CCCCC23)cc1Cl (stereo not drawn) | 17.2 µM
6 | C=CC(C)(C)OC[C@@H]1NC(=O)CNC(=O)[C@@H]2CCCN2C(=O)[C@H](C(C)CC)NC(=O)[C@@H]2CSC(=N2)[C@H](CC(C)C)NC1=O (stereo partly drawn) (cyclo(GS(Allyl(1,1-Me2))[X53][Ile(3ξ)]P)) | > 100 µM

tested on: SW-620 colon; assay: NCI tumour cell line growth inhibition, 48 h

Row | Compound | TGI
7 | O=C1c2ccccc2C(=O)N1[C@@H](Cc1ccccc1)C(=O)n1cccc1CO | > 100 µM
8 | C1CSC2=C(S1)SC1=C(S2)SC(=C2SC3=C(SC4=C(SCCS4)S3)S2)S1 | > 100 µM
9 | Clc1ccc(Cc2nc3cc(Cl)c(Cl)cc3n2CC2CCCN3CCCCC23)cc1Cl (stereo not drawn) | 4.9 µM

tested on: HCT-116 colon; assay: NCI tumour cell line growth inhibition, 48 h

Row | Compound | TGI
10 | O=C1c2ccccc2C(=O)N1[C@@H](Cc1ccccc1)C(=O)n1cccc1CO | > 100 µM
11 | C1CSC2=C(S1)SC1=C(S2)SC(=C2SC3=C(SC4=C(SCCS4)S3)S2)S1 | > 100 µM
12 | Clc1ccc(Cc2nc3cc(Cl)c(Cl)cc3n2CC2CCCN3CCCCC23)cc1Cl (stereo not drawn) | 10.7 µM
13 | C=CC(C)(C)OC[C@@H]1NC(=O)CNC(=O)[C@@H]2CCCN2C(=O)[C@H](C(C)CC)NC(=O)[C@@H]2CSC(=N2)[C@H](CC(C)C)NC1=O (stereo partly drawn) (cyclo(GS(Allyl(1,1-Me2))[X53][Ile(3ξ)]P)) | > 100 µM

tested on: SNB-75 CNS; assay: NCI tumour cell line growth inhibition, 48 h

Row | Compound | TGI
14 | O=C1c2ccccc2C(=O)N1[C@@H](Cc1ccccc1)C(=O)n1cccc1CO | > 100 µM
15 | C1CSC2=C(S1)SC1=C(S2)SC(=C2SC3=C(SC4=C(SCCS4)S3)S2)S1 | > 100 µM
16 | Clc1ccc(Cc2nc3cc(Cl)c(Cl)cc3n2CC2CCCN3CCCCC23)cc1Cl (stereo not drawn) | 12 µM
17 | C=CC(C)(C)OC[C@@H]1NC(=O)CNC(=O)[C@@H]2CCCN2C(=O)[C@H](C(C)CC)NC(=O)[C@@H]2CSC(=N2)[C@H](CC(C)C)NC1=O (stereo partly drawn) (cyclo(GS(Allyl(1,1-Me2))[X53][Ile(3ξ)]P)) | > 100 µM

tested on: ACHN renal; assay: NCI tumour cell line growth inhibition, 48 h

Row | Compound | TGI
18 | O=C1c2ccccc2C(=O)N1[C@@H](Cc1ccccc1)C(=O)n1cccc1CO | > 100 µM
19 | C1CSC2=C(S1)SC1=C(S2)SC(=C2SC3=C(SC4=C(SCCS4)S3)S2)S1 | > 100 µM
20 | Clc1ccc(Cc2nc3cc(Cl)c(Cl)cc3n2CC2CCCN3CCCCC23)cc1Cl (stereo not drawn) | 16.1 µM
21 | C=CC(C)(C)OC[C@@H]1NC(=O)CNC(=O)[C@@H]2CCCN2C(=O)[C@H](C(C)CC)NC(=O)[C@@H]2CSC(=N2)[C@H](CC(C)C)NC1=O (stereo partly drawn) (cyclo(GS(Allyl(1,1-Me2))[X53][Ile(3ξ)]P)) | > 100 µM

tested on: A549 NSCLC; assay: NCI tumour cell line growth inhibition, 48 h

Row | Compound | TGI
22 | O=C1c2ccccc2C(=O)N1[C@@H](Cc1ccccc1)C(=O)n1cccc1CO | > 100 µM
23 | C1CSC2=C(S1)SC1=C(S2)SC(=C2SC3=C(SC4=C(SCCS4)S3)S2)S1 | > 100 µM
24 | Clc1ccc(Cc2nc3cc(Cl)c(Cl)cc3n2CC2CCCN3CCCCC23)cc1Cl (stereo not drawn) | 20 µM
25 | C=CC(C)(C)OC[C@@H]1NC(=O)CNC(=O)[C@@H]2CCCN2C(=O)[C@H](C(C)CC)NC(=O)[C@@H]2CSC(=N2)[C@H](CC(C)C)NC1=O (stereo partly drawn) (cyclo(GS(Allyl(1,1-Me2))[X53][Ile(3ξ)]P)) | > 100 µM

tested on: SF-539 CNS; assay: NCI tumour cell line growth inhibition, 48 h

Row | Compound | TGI
26 | O=C1c2ccccc2C(=O)N1[C@@H](Cc1ccccc1)C(=O)n1cccc1CO | > 100 µM
27 | C1CSC2=C(S1)SC1=C(S2)SC(=C2SC3=C(SC4=C(SCCS4)S3)S2)S1 | > 100 µM
28 | Clc1ccc(Cc2nc3cc(Cl)c(Cl)cc3n2CC2CCCN3CCCCC23)cc1Cl (stereo not drawn) | 4.17 µM
29 | C=CC(C)(C)OC[C@@H]1NC(=O)CNC(=O)[C@@H]2CCCN2C(=O)[C@H](C(C)CC)NC(=O)[C@@H]2CSC(=N2)[C@H](CC(C)C)NC1=O (stereo partly drawn) (cyclo(GS(Allyl(1,1-Me2))[X53][Ile(3ξ)]P)) | > 100 µM

tested on: 786-0 renal; assay: NCI tumour cell line growth inhibition, 48 h

Row | Compound | TGI
30 | O=C1c2ccccc2C(=O)N1[C@@H](Cc1ccccc1)C(=O)n1cccc1CO | > 100 µM
31 | C1CSC2=C(S1)SC1=C(S2)SC(=C2SC3=C(SC4=C(SCCS4)S3)S2)S1 | > 100 µM
32 | Clc1ccc(Cc2nc3cc(Cl)c(Cl)cc3n2CC2CCCN3CCCCC23)cc1Cl (stereo not drawn) | 12.7 µM
33 | C=CC(C)(C)OC[C@@H]1NC(=O)CNC(=O)[C@@H]2CCCN2C(=O)[C@H](C(C)CC)NC(=O)[C@@H]2CSC(=N2)[C@H](CC(C)C)NC1=O (stereo partly drawn) (cyclo(GS(Allyl(1,1-Me2))[X53][Ile(3ξ)]P)) | > 100 µM

tested on: SR leukemia; assay: NCI tumour cell line growth inhibition, 48 h

Row | Compound | TGI
34 | O=C1c2ccccc2C(=O)N1[C@@H](Cc1ccccc1)C(=O)n1cccc1CO | > 100 µM
35 | C1CSC2=C(S1)SC1=C(S2)SC(=C2SC3=C(SC4=C(SCCS4)S3)S2)S1 | > 100 µM
36 | Clc1ccc(Cc2nc3cc(Cl)c(Cl)cc3n2CC2CCCN3CCCCC23)cc1Cl (stereo not drawn) | 7.6 µM
37 | C=CC(C)(C)OC[C@@H]1NC(=O)CNC(=O)[C@@H]2CCCN2C(=O)[C@H](C(C)CC)NC(=O)[C@@H]2CSC(=N2)[C@H](CC(C)C)NC1=O (stereo partly drawn) (cyclo(GS(Allyl(1,1-Me2))[X53][Ile(3ξ)]P)) | > 100 µM

tested on: HOP-92 NSCLC; assay: NCI tumour cell line growth inhibition, 48 h

Row | Compound | TGI
38 | O=C1c2ccccc2C(=O)N1[C@@H](Cc1ccccc1)C(=O)n1cccc1CO | > 100 µM
39 | C1CSC2=C(S1)SC1=C(S2)SC(=C2SC3=C(SC4=C(SCCS4)S3)S2)S1 | > 100 µM
40 | Clc1ccc(Cc2nc3cc(Cl)c(Cl)cc3n2CC2CCCN3CCCCC23)cc1Cl (stereo not drawn) | 22.8 µM
41 | C=CC(C)(C)OC[C@@H]1NC(=O)CNC(=O)[C@@H]2CCCN2C(=O)[C@H](C(C)CC)NC(=O)[C@@H]2CSC(=N2)[C@H](CC(C)C)NC1=O (stereo partly drawn) (cyclo(GS(Allyl(1,1-Me2))[X53][Ile(3ξ)]P)) | > 100 µM

tested on: HOP-62 NSCLC; assay: NCI tumour cell line growth inhibition, 48 h

Row | Compound | TGI
42 | O=C1c2ccccc2C(=O)N1[C@@H](Cc1ccccc1)C(=O)n1cccc1CO | > 100 µM
43 | C1CSC2=C(S1)SC1=C(S2)SC(=C2SC3=C(SC4=C(SCCS4)S3)S2)S1 | > 100 µM
44 | Clc1ccc(Cc2nc3cc(Cl)c(Cl)cc3n2CC2CCCN3CCCCC23)cc1Cl (stereo not drawn) | 24.5 µM
45 | C=CC(C)(C)OC[C@@H]1NC(=O)CNC(=O)[C@@H]2CCCN2C(=O)[C@H](C(C)CC)NC(=O)[C@@H]2CSC(=N2)[C@H](CC(C)C)NC1=O (stereo partly drawn) (cyclo(GS(Allyl(1,1-Me2))[X53][Ile(3ξ)]P)) | > 100 µM

tested on: RXF 393 renal; assay: NCI tumour cell line growth inhibition, 48 h

Row | Compound | TGI
46 | O=C1c2ccccc2C(=O)N1[C@@H](Cc1ccccc1)C(=O)n1cccc1CO | 56.6 µM
47 | C1CSC2=C(S1)SC1=C(S2)SC(=C2SC3=C(SC4=C(SCCS4)S3)S2)S1 | > 100 µM
48 | Clc1ccc(Cc2nc3cc(Cl)c(Cl)cc3n2CC2CCCN3CCCCC23)cc1Cl (stereo not drawn) | 30.7 µM
49 | C=CC(C)(C)OC[C@@H]1NC(=O)CNC(=O)[C@@H]2CCCN2C(=O)[C@H](C(C)CC)NC(=O)[C@@H]2CSC(=N2)[C@H](CC(C)C)NC1=O (stereo partly drawn) (cyclo(GS(Allyl(1,1-Me2))[X53][Ile(3ξ)]P)) | > 100 µM

tested on: MCF7 breast; assay: NCI tumour cell line growth inhibition, 48 h

Row | Compound | TGI
50 | O=C1c2ccccc2C(=O)N1[C@@H](Cc1ccccc1)C(=O)n1cccc1CO | > 100 µM
51 | C1CSC2=C(S1)SC1=C(S2)SC(=C2SC3=C(SC4=C(SCCS4)S3)S2)S1 | > 100 µM
52 | Clc1ccc(Cc2nc3cc(Cl)c(Cl)cc3n2CC2CCCN3CCCCC23)cc1Cl (stereo not drawn) | 7.15 µM
53 | C=CC(C)(C)OC[C@@H]1NC(=O)CNC(=O)[C@@H]2CCCN2C(=O)[C@H](C(C)CC)NC(=O)[C@@H]2CSC(=N2)[C@H](CC(C)C)NC1=O (stereo partly drawn) (cyclo(GS(Allyl(1,1-Me2))[X53][Ile(3ξ)]P)) | > 100 µM

tested on: EKVX NSCLC; assay: NCI tumour cell line growth inhibition, 48 h

Row | Compound | TGI
54 | O=C1c2ccccc2C(=O)N1[C@@H](Cc1ccccc1)C(=O)n1cccc1CO | > 100 µM
55 | C1CSC2=C(S1)SC1=C(S2)SC(=C2SC3=C(SC4=C(SCCS4)S3)S2)S1 | > 100 µM
56 | Clc1ccc(Cc2nc3cc(Cl)c(Cl)cc3n2CC2CCCN3CCCCC23)cc1Cl (stereo not drawn) | 11.1 µM
57 | C=CC(C)(C)OC[C@@H]1NC(=O)CNC(=O)[C@@H]2CCCN2C(=O)[C@H](C(C)CC)NC(=O)[C@@H]2CSC(=N2)[C@H](CC(C)C)NC1=O (stereo partly drawn) (cyclo(GS(Allyl(1,1-Me2))[X53][Ile(3ξ)]P)) | > 100 µM

tested on: NCI-H460 lung; assay: NCI tumour cell line growth inhibition, 48 h

Row | Compound | TGI
58 | O=C1c2ccccc2C(=O)N1[C@@H](Cc1ccccc1)C(=O)n1cccc1CO | > 100 µM
